Source: ChEMBL document CHEMBL1138438, “Structural-activity relationship study of highly-functionalized imidazolines as potent inhibitors of nuclear transcription factor-kappaB mediated IL-6 production” (Bioorg Med Chem, 2009)

How the values were obtained:
HeLa [1] = assay: Cell cycle arrest in TNF-alpha-stimulated human HeLa cells transfected with NFkappaB-Luc assessed as accumulation at diploid G2 phase at 0.5 uM after 8 hrs by using propidium iodide staining by FACS analysis; assay type: functional
HeLa [2] = assay: Cell cycle arrest in TNF-alpha-stimulated human HeLa cells transfected with NFkappaB-Luc assessed as accumulation at G2/G1 phase at 10 uM after 8 hrs by using propidium iodide staining by FACS analysis; assay type: functional
HeLa [3] = assay: Cell cycle arrest in TNF-alpha-stimulated human HeLa cells transfected with NFkappaB-Luc assessed as accumulation at diploid G1 phase at 10 uM after 8 hrs by using propidium iodide staining by FACS analysis; assay type: functional
HeLa [4] = assay: Effect on cell cycle arrest in TNF-alpha-stimulated human HeLa cells transfected with NFkappaB-Luc assessed as total background cell aggregate and debris level at 0.05 uM after 8 hrs by using propidium iodide staining by FACS analysis; assay type: functional
HeLa [5] = assay: Cell cycle arrest in TNF-alpha-stimulated human HeLa cells transfected with NFkappaB-Luc assessed as accumulation at diploid G2 phase at 20 uM after 8 hrs by using propidium iodide staining by FACS analysis; assay type: functional
HeLa [6] = assay: Cell cycle arrest in TNF-alpha-stimulated human HeLa cells transfected with NFkappaB-Luc assessed as accumulation at total S phase at 0.5 uM after 8 hrs by using propidium iodide staining by FACS analysis; assay type: functional
HeLa [7] = assay: Cell cycle arrest in TNF-alpha-stimulated human HeLa cells transfected with NFkappaB-Luc assessed as accumulation at diploid G2 phase at 0.1 uM after 8 hrs by using propidium iodide staining by FACS analysis; assay type: functional
HeLa [8] = assay: Cell cycle arrest in human HeLa cells transfected with NFkappaB-Luc assessed as accumulation at diploid stage at 20 uM after 8 hrs by using propidium iodide staining by FACS analysis; assay type: functional
HeLa [9] = assay: Cell cycle arrest in TNF-alpha-stimulated human HeLa cells transfected with NFkappaB-Luc assessed as accumulation at G2/G1 phase at 5 uM after 8 hrs by using propidium iodide staining by FACS analysis; assay type: functional
[10] = Cytotoxicity against IL-1-beta-stimulated human whole blood lymphocytes assessed as survival cell count in millions at 3 uM after 24 hrs by trypan blue staining-based hemocytometry
HeLa [11] = assay: Effect on cell cycle arrest in TNF-alpha-stimulated human HeLa cells transfected with NFkappaB-Luc assessed as cell debris level at 5 uM after 8 hrs by using propidium iodide staining by FACS analysis; assay type: functional
HeLa [12] = assay: Cell cycle arrest in human HeLa cells transfected with NFkappaB-Luc assessed as accumulation at G2/G1 phase at 20 uM after 8 hrs by using propidium iodide staining by FACS analysis; assay type: functional
HeLa [13] = assay: Effect on cell cycle arrest in TNF-alpha-stimulated human HeLa cells transfected with NFkappaB-Luc assessed as cell aggregate level at 10 uM after 8 hrs by using propidium iodide staining by FACS analysis; assay type: functional
HeLa [14] = assay: Cell cycle arrest in human HeLa cells transfected with NFkappaB-Luc assessed as accumulation at diploid G2 phase at 20 uM after 8 hrs by using propidium iodide staining by FACS analysis; assay type: functional
HeLa [15] = assay: Cell cycle arrest in TNF-alpha-stimulated human HeLa cells transfected with NFkappaB-Luc assessed as accumulation at diploid G1 phase at 1 uM after 8 hrs by using propidium iodide staining by FACS analysis; assay type: functional
HeLa [16] = assay: Cell cycle arrest in TNF-alpha-stimulated human HeLa cells transfected with NFkappaB-Luc assessed as accumulation at diploid stage at 1 uM after 8 hrs by using propidium iodide staining by FACS analysis; assay type: functional
HeLa [17] = assay: Cell cycle arrest in TNF-alpha-stimulated human HeLa cells transfected with NFkappaB-Luc assessed as accumulation at diploid S phase at 0.5 uM after 8 hrs by using propidium iodide staining by FACS analysis; assay type: functional
HeLa [18] = assay: Cell cycle arrest in TNF-alpha-stimulated human HeLa cells transfected with NFkappaB-Luc assessed as accumulation at diploid S phase at 0.1 uM after 8 hrs by using propidium iodide staining by FACS analysis; assay type: functional
HeLa [19] = assay: Cell cycle arrest in human HeLa cells transfected with NFkappaB-Luc assessed as accumulation at total S phase at 20 uM after 8 hrs by using propidium iodide staining by FACS analysis; assay type: functional
HeLa [20] = assay: Cell cycle arrest in TNF-alpha-stimulated human HeLa cells transfected with NFkappaB-Luc assessed as accumulation at total S phase at 1 uM after 8 hrs by using propidium iodide staining by FACS analysis; assay type: functional
HeLa [21] = assay: Cell cycle arrest in human HeLa cells transfected with NFkappaB-Luc assessed as accumulation at diploid G1 phase at 20 uM after 8 hrs by using propidium iodide staining by FACS analysis; assay type: functional
HeLa [22] = assay: Effect on cell cycle arrest in TNF-alpha-stimulated human HeLa cells transfected with NFkappaB-Luc assessed as cell aggregate level at 0.1 uM after 8 hrs by using propidium iodide staining by FACS analysis; assay type: functional
HeLa [23] = assay: Effect on cell cycle arrest in TNF-alpha-stimulated human HeLa cells transfected with NFkappaB-Luc assessed as total background cell aggregate and debris level at 1 uM after 8 hrs by using propidium iodide staining by FACS analysis; assay type: functional
Blood = assay: Antiinflammatory activity in human whole blood assessed as inhibition of IL-1-beta-stimulated IL6 production preincubated 2 hrs before IL1-beta challenge measured after 18 hrs by ELISA; assay type: functional, tissue-based
HeLa [24] = assay: Effect on cell cycle arrest in TNF-alpha-stimulated human HeLa cells transfected with NFkappaB-Luc assessed as cell debris level at 0.05 uM after 8 hrs by using propidium iodide staining by FACS analysis; assay type: functional
HeLa [25] = assay: Cell cycle arrest in TNF-alpha-stimulated human HeLa cells transfected with NFkappaB-Luc assessed as accumulation at diploid G1 phase at 0.5 uM after 8 hrs by using propidium iodide staining by FACS analysis; assay type: functional
[26] = Cytotoxicity against IL-1-beta-stimulated human whole blood lymphocytes assessed as survival cell count in millions at 20 uM after 24 hrs by trypan blue staining-based hemocytometry
HeLa [27] = assay: Cell cycle arrest in TNF-alpha-stimulated human HeLa cells transfected with NFkappaB-Luc assessed as accumulation at diploid G1 phase at 0.05 uM after 8 hrs by using propidium iodide staining by FACS analysis; assay type: functional
HeLa [28] = assay: Cell cycle arrest in TNF-alpha-stimulated human HeLa cells transfected with NFkappaB-Luc assessed as accumulation at diploid stage at 0.05 uM after 8 hrs by using propidium iodide staining by FACS analysis; assay type: functional
HeLa [29] = assay: Cell cycle arrest in TNF-alpha-stimulated human HeLa cells transfected with NFkappaB-Luc assessed as accumulation at total S phase at 0.1 uM after 8 hrs by using propidium iodide staining by FACS analysis; assay type: functional
HeLa [30] = assay: Effect on cell cycle arrest in TNF-alpha-stimulated human HeLa cells transfected with NFkappaB-Luc assessed as total background cell aggregate and debris level at 0.5 uM after 8 hrs by using propidium iodide staining by FACS analysis; assay type: functional
HeLa [31] = assay: Effect on cell cycle arrest in TNF-alpha-stimulated human HeLa cells transfected with NFkappaB-Luc assessed as cell debris level at 20 uM after 8 hrs by using propidium iodide staining by FACS analysis; assay type: functional

Work on CCOC(=O)[C@]1(c2ccccc2)N=C(c2ccccc2)N(Cc2ccccc2)[C@@H]1c1ccccc1 (racemic) yielded an Activity (HeLa [1]) of 13.4%, an Activity (HeLa [2]) of 1.91% and an Activity (HeLa [3]) of 68.19%. For the same compound, the Activity (HeLa [4]) was 1.06%, the Activity (HeLa [5]) was 14.75% and the Activity (HeLa [6]) was 22.52%. It also gave an Activity (HeLa [7]) of 14.03%, an Activity (HeLa [8]) of 100% and an Activity (HeLa [9]) of 1.91%. For the same compound, the Activity [10] was 1.06 mL⁻¹, the Activity (HeLa [11]) was 2.7% and the Activity (HeLa [12]) was 1.9%. It also gave an Activity (HeLa [13]) of 0%, an Activity (HeLa [14]) of 13.33% and an Activity (HeLa [15]) of 63.22%. For the same compound, the Activity (HeLa [16]) was 100%, the Activity (HeLa [17]) was 22.52% and the Activity (HeLa [18]) was 21.47%. For the same compound, the Activity (HeLa [19]) was 21.48%, the Activity (HeLa [20]) was 22.9% and the Activity (HeLa [21]) was 65.19%. The Activity (HeLa [22]) was 0%, the Activity (HeLa [23]) was 1.87% and the Activity (Blood) was “Dose-dependent effect”. The IC50 (Blood; read-out: IC50) was 800 nM, the IC50 (Blood; read-out: Log IC50 (converted)) was 794 nM and the Activity (HeLa [24]) was 2.47%. The Activity (HeLa [25]) was 64.08%, the Activity [26] was 0.98 mL⁻¹ and the Activity (HeLa [27]) was 64.3%. It also gave an Activity (HeLa [28]) of 100%, an Activity (HeLa [29]) of 21.47% and an Activity (HeLa [30]) of 1.29%. For the same compound, the Activity (HeLa [31]) was 14.57%.
